{
  "source": "patent US20260207623A1",
  "about": "“USE OF ESTETROL IN HEPATICALLY IMPAIRED PATIENTS” (ESTETRA SRL, priority 2022, published 2026)",
  "test_system": "post-menopausal women",
  "experiment": "Example 3: menopause-specific Quality of Life (MENQOL) questionnaire",
  "type": "in vivo, human",
  "data": [
    {"smiles": "C[C@]12CC[C@@H]3c4ccc(O)cc4CC[C@H]3[C@@H]1[C@@H](O)[C@@H](O)[C@@H]2O.O", "note": "[E4 monoh.]", "values": [
      {"measurement": "MENQOL Anxious or Nervous, Estimate vs Placebo", "setting": "15 mg", "value": "−0.6100"},
      {"measurement": "MENQOL Being Impatient with Others, Estimate vs Placebo", "setting": "15 mg", "value": "−0.4911"},
      {"measurement": "MENQOL Difficulty sleeping, Estimate vs Placebo", "setting": "15 mg", "value": "−0.7011"},
      {"measurement": "MENQOL Dissatisfied Personal Life, Estimate vs Placebo", "setting": "15 mg", "value": "−0.8163"},
      {"measurement": "MENQOL Physical Domain, Aching in muscles, Estimate vs Placebo", "setting": "15 mg", "value": "−0.1858"},
      {"measurement": "MENQOL Psychosocial Domain Score, Estimate vs Placebo", "setting": "15 mg", "value": "−0.5211"},
      {"measurement": "Total MENQOL Score, Estimate vs Placebo", "setting": "15 mg", "value": "−0.7068"},
      {"measurement": "MENQOL Anxious or Nervous, Estimate vs Placebo", "setting": "20 mg", "value": "−0.8197"},
      {"measurement": "MENQOL Being Impatient with Others, Estimate vs Placebo", "setting": "20 mg", "value": "−0.5656"},
      {"measurement": "MENQOL Difficulty sleeping, Estimate vs Placebo", "setting": "20 mg", "value": "−0.7258"},
      {"measurement": "MENQOL Dissatisfied Personal Life, Estimate vs Placebo", "setting": "20 mg", "value": "−1.2719"},
      {"measurement": "MENQOL Physical Domain, Aching in muscles, Estimate vs Placebo", "setting": "20 mg", "value": "−0.5576"},
      {"measurement": "MENQOL Psychosocial Domain Score, Estimate vs Placebo", "setting": "20 mg", "value": "−0.6056"},
      {"measurement": "Total MENQOL Score, Estimate vs Placebo", "setting": "20 mg", "value": "−0.7155"}
    ]}
  ]
}
